What follows are molecules tested against T1, Human autotaxin enzyme (Homo sapiens, UniProt Q13822) (assay: Evaluation of autotaxin inhibitor, 18:0 Lyso PC / choline assay (Test Example 2)). Conditions: human autotaxin enzyme, 18:0 Lyso PC substrate, choline assay, room temperature 2 hours; read-out: Inhibitor activity (IC50).
T1 construct: purchased R&D System
Format: biochemical
Procedure, shortened: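 Inhibition derived from concentration-dependent curves, scaled between no-compound (0%) and no-enzyme (100%) wells. Choline generated from 18:0 Lyso PC (200 μM stock) by human enzyme over 2 h at room temperature (Tris-HCl pH 7.5, NaCl, MgCl2, Triton X-100) read as resorufin fluorescence, 531/598 nm, after choline oxidase-peroxidase coupling.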

Question: Which IC50 does the source give for `COC(=O)Nc1cc(C#N)ccc1-c1cc(=O)n(CC(=O)NCC2(CO)CC2)c(C)n1` [Compound I-0417] here?
Answer: Its IC50 is 10 to 100 nM.

Question: With `Cc1nc(-c2ccc(Cl)cc2NC(=O)C2CC2)cc(=O)n1CC(=O)NC1COC1` [Compound I-0404] as the molecule, how does the IC50 read?
Answer: The IC50 was 10 to 100 nM.

Question: How did the IC50 turn out when `O=C1CCC(CNC(=O)Cn2c(CCCC(F)(F)F)nc(-c3ccc(C(F)(F)F)cc3)cc2=O)CN1` (centres unmarked) [Compound I-0343] was run?
Answer: The IC50 was 100 to 1000 nM.

Question: With `Cc1nc(-c2ccc(Cl)cc2NC(=O)C2CC2)cc(=O)n1CC(=O)NC(C)(C)C(F)(F)F` [Compound I-0462] as the molecule, how does the IC50 read?
Answer: The IC50 was 10 to 100 nM.

Question: `COC(=O)Nc1cc(C#N)ccc1-c1cc(=O)n(CC(=O)NC(C)(C)C(F)(F)F)c(C)n1` [Compound I-0444] was tested. Which IC50 did it give?
Answer: Its IC50 is under 10 nM.

— patent US10183949B2, “Pyrimidinone derivative having autotaxin-inhibitory activity” (The University of Tokyo, priority 2014, dated 2019)
